Data reported in ChEMBL document CHEMBL1201862, “PubChem BioAssay data set” (2004).
“And” between values parts separate entries of the source, which are not always exact repeats. Equal entries are not always repeated.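 Following 48 hours of exposure in 96-well plates, responses at five concentrations were used to interpolate endpoints linearly. The concentration for 50% growth inhibition is given as GI50.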 The source made the active and inactive calls. No stated cut-off is given here; in the data, active = GI50 up to about 1.1 µM and inactive = higher.

Columns and labels:
Assay in all cases: DTP human tumour cell line panel, 48 h
DLD-1 = test system: DLD-1
DMS-114 = test system: DMS-114
DMS-273 = test system: DMS-273
HOP-18 = test system: HOP-18
LXFL 529 = test system: LXFL 529
M19-MEL = test system: M19-MEL
SNB-78 = test system: SNB-78
XF498 = test system: XF498
RXF 631 = test system: RXF 631

| Structure (SMILES) | GI50 (DLD-1) | GI50 (DMS-114) | GI50 (DMS-273) | GI50 (HOP-18) | GI50 (LXFL 529) | GI50 (M19-MEL) | GI50 (SNB-78) | GI50 (XF498) | GI50 (RXF 631) |
| --- | --- | --- | --- | --- | --- | --- | --- | --- | --- |
| CN(/N=C\c1ccnc2ccccc12)c1ccccc1 | 21.5 µM (inactive) | 22.7 µM (inactive) | 20 µM (inactive) | 79.1 µM (inactive) | 26.1 µM (inactive) | 26.1 µM (inactive) | 34.4 µM (inactive) | 29.7 µM (inactive) |  |
| Nc1nc(=O)c(/N=N/c2ccccc2)c(N)[nH]1 | 43.1 µM (inactive) | 25.6 µM (inactive) | 37.2 µM (inactive) | 38 µM (inactive) |  | 39.3 µM (inactive) | 19.6 µM (inactive) | 60.1 µM (inactive) |  |
| CCCCCCCCCCCCCCCC(=O)NCC(COP(=O)([O-])OCC[N+](C)(C)C)OCC (stereo not given) | 5.19 µM (inactive) | 16 µM (inactive) | 2.36 µM (inactive) | 0.92 µM (active) | 13.1 µM (inactive) | 4.5 µM (inactive) | 14.1 µM (inactive) | 12.1 µM (inactive) |  |
| CC1=CC(=O)c2ccc3c4ccccc4n(C)c3c2C1=O | 62.8 µM (inactive) | 27.7 µM (inactive) | 43.4 µM (inactive) | 4.4 µM (inactive) | 25.8 µM (inactive) | 10.1 µM (inactive) | 90.8 µM (inactive) | 29.2 µM (inactive) |  |
| CC1=NN(C(=O)Nc2ccccc2)C(=O)C2CCC(=O)N12 (stereo not given) | > 100 µM (inactive) | > 100 µM (inactive) | > 100 µM (inactive) |  | > 100 µM (inactive) | > 100 µM (inactive) | > 100 µM (inactive) | > 100 µM (inactive) | > 100 µM (inactive) |
| CSC1C=C(C(C)C)CCC1(C)SC (stereo not given) | 18 µM (inactive) | 15.7 µM (inactive) | 19 µM (inactive) |  | 18.4 µM (inactive) | 16.9 µM (inactive) | 16.5 µM (inactive) | 19.6 µM (inactive) |  |
| CCOC(=O)/C=C(/CN1C(=O)c2ccccc2C1=O)c1ccccc1 | > 100 µM (inactive) | > 100 µM (inactive) | > 100 µM (inactive) | > 100 µM (inactive) | > 100 µM (inactive) | > 100 µM (inactive) | 88.9 µM (inactive) | > 100 µM (inactive) |  |
| C[N+](C)(C)C1CC([N+](C)(C)C)C2c3ccccc3C21 (stereo not given) | > 100 µM (inactive) | > 100 µM (inactive) | > 100 µM (inactive) |  | > 100 µM (inactive) | > 100 µM (inactive) | > 100 µM (inactive) | > 100 µM (inactive) | > 100 µM (inactive) |
| C=CCc1ccc(O)c(-c2cc(C3Oc4c(-c5cc(CC=C)ccc5O)cc(O)cc4[C@@H]3CO)ccc2O)c1 (stereo not given in full) | 18 µM (inactive) | 14.9 µM (inactive) | 20.4 µM (inactive) | 32.4 µM (inactive) | 19.8 µM (inactive) | 33.4 µM (inactive) | 39.9 µM (inactive) |  |  |
| O=C(CC1(O)C(=O)Nc2c(Cl)ccc(Cl)c21)c1ccc(F)cc1 (stereo not given) | 52.5 µM (inactive) | 22.7 µM (inactive) | 33.7 µM (inactive) | 29.6 µM (inactive) | 19.4 µM (inactive) |  | 35.6 µM (inactive) | 32.7 µM (inactive) | 37 µM (inactive) |
| OC12CCC3(OC4CCCCO4)c4ccccc4C3C1c1ccccc12 (stereo not given) |  | 87.5 µM (inactive) | 61.7 µM (inactive) | > 100 µM (inactive) | 41.2 µM (inactive) | 90.4 µM (inactive) | > 100 µM (inactive) | 31.8 µM (inactive) |  |
| Cc1ccc(S(=O)(=O)SC/C=C\CSS(=O)(=O)c2ccc(C)cc2)cc1 | 22.1 µM (inactive) and 29.1 µM (inactive) |  |  |  |  | 35.3 µM (inactive) and 44.6 µM (inactive) | 25.9 µM (inactive) and 27.2 µM (inactive) | 38.5 µM (inactive) and 23.4 µM (inactive) |  |
| NC(=O)c1nc(-c2ccc(Cl)c(Cl)c2)nc2ccccc12 | > 22.8 µM (inactive) | > 20.4 µM (inactive) |  | 34.8 µM (inactive) | > 26.4 µM (inactive) | > 38.1 µM (inactive) | > 23.7 µM (inactive) | 57.8 µM (inactive) |  |
| COc1ccc(NC(=O)CC(=O)N/N=C(\C)c2cc3ccccc3oc2=O)cc1 | > 100 µM (inactive) | > 100 µM (inactive) | > 100 µM (inactive) | 80.5 µM (inactive) |  | > 100 µM (inactive) |  |  |  |
| CCCCCCCCCCCCCCCC(=O)NC1CCc2cc(O)c(O)c(O)c2-c2ccc(SC)c(=O)cc21 (stereo not given) | 7.94 µM (inactive) | 1.94 µM (inactive) | 4.16 µM (inactive) |  | 1.44 µM (inactive) |  | 8.55 µM (inactive) | 7.26 µM (inactive) | 13.2 µM (inactive) |
| COC(=O)C(=O)C(C(=O)C(=O)Nc1ccccc1[N+](=O)[O-])c1nc2ccc([N+](=O)[O-])cc2nc1O (stereo not given) |  | > 100 µM (inactive) | > 100 µM (inactive) | > 100 µM (inactive) | > 100 µM (inactive) | > 100 µM (inactive) | > 100 µM (inactive) |  | > 100 µM (inactive) |
| COc1ccc(C(=O)C(c2ccc(OC)cc2)C2(O)C(=O)Nc3c(C)cc(Cl)cc32)cc1 (stereo not given) | 76.4 µM (inactive) |  | 58.9 µM (inactive) |  | 37.7 µM (inactive) | 20.8 µM (inactive) | > 100 µM (inactive) |  | 59 µM (inactive) |
| CN(C(=O)c1ccco1)C(=S)N1CCN(c2ccccc2)CC1 | > 100 µM (inactive) | > 100 µM (inactive) | > 100 µM (inactive) | > 100 µM (inactive) | > 100 µM (inactive) | > 100 µM (inactive) |  | > 100 µM (inactive) |  |
| O=C1C(=Cc2ccc(F)cc2)C(=O)c2ccccc21 | > 100 µM (inactive) | > 100 µM (inactive) | > 100 µM (inactive) |  | > 100 µM (inactive) | 96.2 µM (inactive) |  | > 100 µM (inactive) | > 100 µM (inactive) |
| c1ccc(SC(Sc2ccccc2)=C2CCC2)cc1 | > 100 µM (inactive) | > 100 µM (inactive) | > 100 µM (inactive) |  |  | > 100 µM (inactive) | > 100 µM (inactive) | 49.8 µM (inactive) | > 100 µM (inactive) |
| CCCCCCCCCCCCCCCCCCOCC(COCCOCC[N+]1(CCCCCC(=O)[O-])CCCC1)Oc1ncccn1 (stereo not given) | 2.18 µM (inactive) | 1.21 µM (inactive) | 0.37 µM (active) | 4.85 µM (inactive) |  | 0.7 µM (active) | 2.56 µM (inactive) | 2.1 µM (inactive) |  |
| C/C(=N/O)c1ccc2c(c1)/C(=N/O)c1cc(/C(C)=N/O)ccc1-2 | 16.1 µM (inactive) | 22.4 µM (inactive) | 23.8 µM (inactive) | 14.1 µM (inactive) | 14.3 µM (inactive) | 19.4 µM (inactive) | 17.5 µM (inactive) | 21.8 µM (inactive) |  |
| O=c1c2ccccc2nc(-c2ccccc2Cl)n1NC1OC(CO)C(O)C(O)C1O (stereo not given) | > 100 µM (inactive) | > 100 µM (inactive) | > 100 µM (inactive) | 32 µM (inactive) | > 100 µM (inactive) | > 100 µM (inactive) | > 100 µM (inactive) | > 100 µM (inactive) |  |
| COC12C(COC(=O)NCCO)C3=C(C(=O)C(C)=C(N)C3=O)N1CC1NC12 (stereo not given) | 41.4 µM (inactive) | 22.9 µM (inactive) | 2.52 µM (inactive) | 36.8 µM (inactive) | 56.2 µM (inactive) | 19.8 µM (inactive) | 80.5 µM (inactive) |  |  |
| O=[N+]([O-])c1cc(/C=N/NS(=O)(=O)c2ccc(F)cc2)c(O)c([N+](=O)[O-])c1 | 51.3 µM (inactive) | 32.2 µM (inactive) | 30.8 µM (inactive) | 85.3 µM (inactive) |  | 49.8 µM (inactive) | 52.6 µM (inactive) |  |  |
| COc1ccc(C(=O)C(CC2C(=O)NC(=O)NC2=O)c2ccc(OC)cc2)cc1 (stereo not given) | > 100 µM (inactive) | > 100 µM (inactive) | > 100 µM (inactive) | > 100 µM (inactive) | > 100 µM (inactive) | > 100 µM (inactive) | > 100 µM (inactive) | > 100 µM (inactive) |  |
| C=CCC1C(=O)CC2(C)CC(=O)C(CC=C)C12C (stereo not given) | > 100 µM (inactive) | > 100 µM (inactive) | > 100 µM (inactive) | > 100 µM (inactive) | > 100 µM (inactive) | > 100 µM (inactive) | > 100 µM (inactive) | > 100 µM (inactive) |  |
| Cn1cnc([N+](=O)[O-])c1Sc1nnnn1C | 14.5 µM (inactive) | 17 µM (inactive) | 17.7 µM (inactive) | 9.86 µM (inactive) | 12.1 µM (inactive) | 15.7 µM (inactive) | 12.7 µM (inactive) | 15.6 µM (inactive) |  |
| CSc1nnc(COc2ccc(Cl)cc2)o1 | > 100 µM (inactive) | > 100 µM (inactive) | > 100 µM (inactive) |  | > 100 µM (inactive) | > 100 µM (inactive) | > 100 µM (inactive) | > 100 µM (inactive) |  |
| COC(=O)[C@@H]1CSC(=S)N1C(=O)C[C@H]1CC=CC[C@H]1CC(=O)Sc1ccccc1 | 17 µM (inactive) |  | 21.7 µM (inactive) | 29.8 µM (inactive) | 15.3 µM (inactive) | 23.4 µM (inactive) | 22.3 µM (inactive) | 16.5 µM (inactive) |  |
